Source: PubChem BioAssay AID330 (DTP/NCI, 2004)
“And” between values parts separate entries of the source, which are not always exact repeats. Equal entries are not always repeated. Inconclusive results and toxic doses are left out. The calls were made as follows: active = survival T/C of 150% or more; inactive = T/C below 125% in these data.

System: P388 leukemia ip, CD2F1 mice, survival T/C
Assay: NCI In Vivo Anticancer Drug Screen. Data for tumor model P388 Leukemia (intraperitoneal) in CD2F1 (CDF1) mice
Settings: endpoint: median survival time, higher = longer survival
Summary of the method: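 Mice carrying the transplanted tumor received test compound or vehicle. Survival was recorded in each group, and the value is the treated-group measurement divided by that of the vehicle-treated control group.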

[1] = dose: 50.0 mg/kg/injection, schedule: Q01DX009 (ip), vehicle: saline
[2] = dose: 100.0 mg/kg/injection, schedule: Q01DX009 (ip), vehicle: saline
[3] = dose: 200.0 mg/kg/injection, schedule: Q01DX009 (ip), vehicle: saline
[4] = dose: 60.0 mg/kg/injection, schedule: Q01DX005 (ip), vehicle: saline with Tween-80
[5] = dose: 25.0 mg/kg/injection, schedule: Q01DX001 (ip), vehicle: Klucel (hydroxypropylcellulose) (HPC)
[6] = dose: 50.0 mg/kg/injection, schedule: Q01DX001 (ip), vehicle: Klucel (hydroxypropylcellulose) (HPC)
[7] = dose: 50.0 mg/kg/injection, schedule: Q01DX009 (ip), vehicle: saline with Tween-80
[8] = dose: 100.0 mg/kg/injection, schedule: Q01DX009 (ip), vehicle: saline with Tween-80
[9] = dose: 200.0 mg/kg/injection, schedule: Q01DX009 (ip), vehicle: saline with Tween-80

Measured: T/C

O=c1ccc(=O)[nH][nH]1
inactive: dose: 25.0 mg/kg/injection, schedule: Q01DX009 (ip), vehicle: saline 102 % of control | [1] 105 % of control and 88 % of control | [2] 99 % of control and 102 % of control | [3] 99 % of control and 100 % of control | dose: 400.0 mg/kg/injection, schedule: Q01DX009 (ip), vehicle: saline 99 % of control and 110 % of control

CCNC(=O)OCCN(CC)CC
inactive: [1] 103 % of control | [2] 103 % of control | [3] 104 % of control

COC(=O)C12CC=CC1C(C)CC2 (stereo not given)
inactive: dose: 75.0 mg/kg/injection, schedule: Q04DX002 (ip), vehicle: Klucel (hydroxypropylcellulose) (HPC) 100 % of control | dose: 150.0 mg/kg/injection, schedule: Q04DX002 (ip), vehicle: Klucel (hydroxypropylcellulose) (HPC) 100 % of control | dose: 300.0 mg/kg/injection, schedule: Q04DX002 (ip), vehicle: Klucel (hydroxypropylcellulose) (HPC) 100 % of control

COC1=C2CC(C)CC(OC)C(O)C(C)/C=C(\C)C(OC(N)=O)C(OC)/C=C\C=C(/C)C(=O)NC(=C(C=NC(C)(C)C)C1=O)C2=O (stereo not given)
inactive: [4] 124 % of control

O=C1OCCOCCOCCOCCOCCOCCOC(=O)c2cccc1n2
inactive: dose: 100.0 mg/kg/injection, schedule: Q04DX003 (ip), vehicle: Klucel (hydroxypropylcellulose) (HPC) 100 % of control | dose: 200.0 mg/kg/injection, schedule: Q04DX003 (ip), vehicle: Klucel (hydroxypropylcellulose) (HPC) 100 % of control | dose: 400.0 mg/kg/injection, schedule: Q04DX003 (ip), vehicle: Klucel (hydroxypropylcellulose) (HPC) 100 % of control

CCOC(=O)C(C)(NC(=O)c1ccccc1)C(=O)OCC
inactive: dose: 60.0 mg/kg/injection, schedule: Q01DX005 (ip), vehicle: saline 101 % of control and 105 % of control | dose: 120.0 mg/kg/injection, schedule: Q01DX005 (ip), vehicle: saline 109 % of control | dose: 240.0 mg/kg/injection, schedule: Q01DX005 (ip), vehicle: saline 100 % of control and 97 % of control

O=C1OCC2CC3c4ccccc4C12c1ccccc13 (stereo not given)
inactive: [5] 100 % of control | [6] 94 % of control | dose: 100.0 mg/kg/injection, schedule: Q01DX001 (ip), vehicle: Klucel (hydroxypropylcellulose) (HPC) 100 % of control | dose: 200.0 mg/kg/injection, schedule: Q01DX001 (ip), vehicle: Klucel (hydroxypropylcellulose) (HPC) 103 % of control

CC1(C)CC(OP(=[Se])(c2ccccc2)c2ccccc2)CC(C)(C)N1O
inactive: dose: 12.5 mg/kg/injection, schedule: Q01DX001 (ip), vehicle: Klucel (hydroxypropylcellulose) (HPC) 96 % of control | [5] 99 % of control | [6] 104 % of control

CCCCNC1=CC(=S)NC(C)(C)C1
inactive: dose: 50.0 mg/kg/injection, schedule: Q01DX009 (ip), vehicle: Klucel (hydroxypropylcellulose) (HPC) 104 % of control | dose: 100.0 mg/kg/injection, schedule: Q01DX009 (ip), vehicle: Klucel (hydroxypropylcellulose) (HPC) 86 % of control | dose: 200.0 mg/kg/injection, schedule: Q01DX009 (ip), vehicle: Klucel (hydroxypropylcellulose) (HPC) 104 % of control

C[Si](CNCCN)(c1ccccc1)c1ccccc1
inactive: dose: 15.0 mg/kg/injection, schedule: Q01DX005 (ip), vehicle: saline with Tween-80 103 % of control | dose: 30.0 mg/kg/injection, schedule: Q01DX005 (ip), vehicle: saline with Tween-80 102 % of control | [4] 96 % of control and 97 % of control

CC(C)c1ccc(C2NC(C(=O)O)CS2)cc1 (stereo not given)
inactive: dose: 50.0 mg/kg/injection, schedule: Q01DX009 (ip), vehicle: suspension in saline 93 % of control | dose: 100.0 mg/kg/injection, schedule: Q01DX009 (ip), vehicle: suspension in saline 90 % of control

COP(=O)(OC)/C(=N\NS(=O)(=O)c1ccc(C)cc1)c1ccccc1
inactive: [7] 100 % of control | [8] 103 % of control | [9] 117 % of control | dose: 400.0 mg/kg/injection, schedule: Q01DX009 (ip), vehicle: saline with Tween-80 119 % of control

CC1(C)CC(=O)C2(OC3=C([Se]2)C(=O)CC(C)(C)C3)C(=O)C1
inactive: [7] 110 % of control | [8] 107 % of control | [9] 107 % of control
